The values below are quoted from earlier work in patent US8668905B2 (priority 2005, dated 2014).

This data set concerns drug-resistant SCLC.

In the case of `CC(=O)O[C@H]1C(=O)[C@@]2(C)[C@H]([C@H](OC(=O)c3ccccc3)[C@]3(O)C[C@H](OC(=O)[C@H](O)[C@@H](NC(=O)c4ccccc4)c4ccccc4)C(C)=C1C3(C)C)[C@]1(OC(C)=O)CO[C@@H]1C[C@@H]2O` [Taxol, Paclitaxel], the life-threatening toxicity ((Smit, 1998)) was 20 % of patients. Besides, for the setting “drug-resistant SCLC patients (Smit, 1998)”, the median survival is recorded as 100 days.
